According to ChEMBL document CHEMBL3872214, “Synthesis and evaluation of in vivo antioxidant, in vitro antibacterial, MRSA and antifungal activity of novel substituted isatin N-(2,3,4,6-tetra-O-acetyl-β-d-glucopyranosyl)thiosemicarbazones” (Eur J Med Chem, 2016):
In brackets after ≈: the same amount, converted by molar mass.

Experiments:
Assay type in all cases: functional
Bacillus subtilis = experiment: Antibacterial activity against Bacillus subtilis ATCC 11774 after 18 to 20 hrs by two-fold microbroth dilution method
Staphylococcus aureus [1] = experiment: Antibacterial activity against Staphylococcus aureus ATCC 11632 after 18 to 20 hrs by two-fold microbroth dilution method
[2] = system: Staphylococcus epidermidis; experiment: Antibacterial activity against Staphylococcus epidermidis ATCC 12228 after 18 to 20 hrs by two-fold microbroth dilution method
Klebsiella aerogenes = experiment: Antibacterial activity against Enterobacter aerogenes ATCC 13048 after 18 to 20 hrs by two-fold microbroth dilution method
Escherichia coli = experiment: Antibacterial activity against Escherichia coli ATCC 25922 after 18 to 20 hrs by two-fold microbroth dilution method
Klebsiella pneumoniae = experiment: Antibacterial activity against Klebsiella pneumoniae ATCC 4352 after 18 to 20 hrs by two-fold microbroth dilution method
Pseudomonas aeruginosa = experiment: Antibacterial activity against Pseudomonas aeruginosa […] after 18 to 20 hrs by two-fold microbroth dilution method
Staphylococcus aureus [3] = experiment: Antibacterial activity against methicillin-resistant Staphylococcus aureus 198-1 after 18 to 20 hrs by two-fold microbroth dilution method
Staphylococcus aureus [4] = experiment: Antibacterial activity against methicillin-resistant Staphylococcus aureus 198-2 after 18 to 20 hrs by two-fold microbroth dilution method
Staphylococcus aureus [5] = experiment: Antibacterial activity against methicillin-resistant Staphylococcus aureus 198-3 after 18 to 20 hrs by two-fold microbroth dilution method
Aspergillus niger = experiment: Antifungal activity against Aspergillus niger 439 after 72 hrs by agar dilution method; settings: Aspergillus niger, 439, 72 h
Candida albicans = experiment: Antifungal activity against Candida albicans ATCC 7754 after 72 hrs by agar dilution method; settings: ATCC 7754, 72 h
[6] = Antifungal activity against Fusarium oxysporum M42 after 72 hrs by agar dilution method
[7] = Antifungal activity against Saccharomyces cerevisiae SH20 after 72 hrs by agar dilution method
Rattus norvegicus [8] = experiment: (§1) Antioxidant activity in CCL4-intoxicated Wistar albino rat assessed as liver cytosolic superoxide dismutase activity per mg protein at 100 mg/kg, ip administered for 7 consecutive days after DL-alpha-tocopherol acetate treatment followed by CCL4 dosing measured after 24 hrs by xanthine based assay (reference value: 5.27 +/- 0.22 U)
Rattus norvegicus [9] = experiment: as §1, with “glutathione peroxidase” for “superoxide dismutase”, “H2O2” for “xanthine”, “spectrophotometric analysis” for “assay”, “0.28” for “5.27”, “0.01” for “0.22”
Rattus norvegicus [10] = experiment: as §1, with “catalase” for “superoxide dismutase”, “H2O2” for “xanthine”, “220.15” for “5.27”, “11.43” for “0.22”

Row | Structure (SMILES) | MIC (Bacillus subtilis) | MIC (Staphylococcus aureus [1]) | MIC [2] | MIC (Klebsiella aerogenes) | MIC (Escherichia coli) | MIC (Klebsiella pneumoniae) | MIC (Pseudomonas aeruginosa) | MIC (Staphylococcus aureus [3]) | MIC (Staphylococcus aureus [4]) | MIC (Staphylococcus aureus [5]) | MIC (Aspergillus niger) | MIC (Candida albicans) | MIC [6] | MIC [7] | Activity (Rattus norvegicus [8]) | Activity (Rattus norvegicus [9]) | Activity (Rattus norvegicus [10])
1 | CCN1C(=O)/C(=N/NC(=S)N[C@@H]2O[C@H](COC(C)=O)[C@@H](OC(C)=O)[C@H](OC(C)=O)[C@H]2OC(C)=O)c2ccccc21 | 100 µM (≈ 57.9 µg/mL) | 100 µM (≈ 57.9 µg/mL) | 100 µM (≈ 57.9 µg/mL) | 12.5 µM (≈ 7.23 µg/mL) | 12.5 µM (≈ 7.23 µg/mL) | 12.5 µM (≈ 7.23 µg/mL) | 12.5 µM (≈ 7.23 µg/mL) | 100 µM (≈ 57.9 µg/mL) | 100 µM (≈ 57.9 µg/mL) | 100 µM (≈ 57.9 µg/mL) | 25 µM (≈ 14.5 µg/mL) | 400 µM (≈ 231 µg/mL) | 200 µM (≈ 116 µg/mL) | 400 µM (≈ 231 µg/mL) | 9.68 U | 0.75 U | 358.47 U
2 | CC(=O)OC[C@H]1O[C@@H](NC(=S)N/N=C2/C(=O)Nc3c2cc(Br)cc3[N+](=O)[O-])[C@H](OC(C)=O)[C@@H](OC(C)=O)[C@@H]1OC(C)=O | 3.12 µM (≈ 2.1 µg/mL) | 6.25 µM (≈ 4.22 µg/mL) | 6.25 µM (≈ 4.22 µg/mL) | 25 µM (≈ 16.9 µg/mL) | 25 µM (≈ 16.9 µg/mL) | 25 µM (≈ 16.9 µg/mL) | 25 µM (≈ 16.9 µg/mL) | 6.25 µM (≈ 4.22 µg/mL) | 6.25 µM (≈ 4.22 µg/mL) | 6.25 µM (≈ 4.22 µg/mL) | 12.5 µM (≈ 8.43 µg/mL) | 12.5 µM (≈ 8.43 µg/mL) | 6.25 µM (≈ 4.22 µg/mL) | 12.5 µM (≈ 8.43 µg/mL) | 10.76 U | 0.37 U | 381.67 U
3 | COc1cccc(OC)c1C(=O)N[C@@H]1C(=O)N2[C@@H]1SC(C)(C)[C@@H]2C(=O)O [METHICILLIN] |  |  |  |  |  |  |  | > 200 µM | > 200 µM | > 200 µM |  |  |  |  |  |  | 
4 | CCCN1C(=O)/C(=N/NC(=S)N[C@@H]2O[C@H](COC(C)=O)[C@@H](OC(C)=O)[C@H](OC(C)=O)[C@H]2OC(C)=O)c2ccccc21 | 100 µM (≈ 59.3 µg/mL) | 100 µM (≈ 59.3 µg/mL) | 100 µM (≈ 59.3 µg/mL) | 12.5 µM (≈ 7.41 µg/mL) | 12.5 µM (≈ 7.41 µg/mL) | 12.5 µM (≈ 7.41 µg/mL) | 12.5 µM (≈ 7.41 µg/mL) | 100 µM (≈ 59.3 µg/mL) | 100 µM (≈ 59.3 µg/mL) | 100 µM (≈ 59.3 µg/mL) | 50 µM (≈ 29.6 µg/mL) | 400 µM (≈ 237 µg/mL) | 100 µM (≈ 59.3 µg/mL) | 400 µM (≈ 237 µg/mL) | 9.77 U | 0.84 U | 367.63 U
5 | CC(=O)OC[C@H]1O[C@@H](NC(=S)N/N=C2/C(=O)Nc3ccc(I)cc32)[C@H](OC(C)=O)[C@@H](OC(C)=O)[C@@H]1OC(C)=O | 6.25 µM (≈ 4.23 µg/mL) | 6.25 µM (≈ 4.23 µg/mL) | 6.25 µM (≈ 4.23 µg/mL) | 50 µM (≈ 33.8 µg/mL) | 50 µM (≈ 33.8 µg/mL) | 25 µM (≈ 16.9 µg/mL) | 25 µM (≈ 16.9 µg/mL) | 6.25 µM (≈ 4.23 µg/mL) | 6.25 µM (≈ 4.23 µg/mL) | 6.25 µM (≈ 4.23 µg/mL) | 6.25 µM (≈ 4.23 µg/mL) | 6.25 µM (≈ 4.23 µg/mL) | 12.5 µM (≈ 8.46 µg/mL) | 6.25 µM (≈ 4.23 µg/mL) | 10.85 U | 0.35 U | 399.75 U
6 | CCCCN1C(=O)/C(=N/NC(=S)N[C@@H]2O[C@H](COC(C)=O)[C@@H](OC(C)=O)[C@H](OC(C)=O)[C@H]2OC(C)=O)c2ccccc21 | 100 µM (≈ 60.7 µg/mL) | 100 µM (≈ 60.7 µg/mL) | 100 µM (≈ 60.7 µg/mL) | 12.5 µM (≈ 7.58 µg/mL) | 12.5 µM (≈ 7.58 µg/mL) | 12.5 µM (≈ 7.58 µg/mL) | 12.5 µM (≈ 7.58 µg/mL) | 100 µM (≈ 60.7 µg/mL) | 100 µM (≈ 60.7 µg/mL) | 100 µM (≈ 60.7 µg/mL) | 100 µM (≈ 60.7 µg/mL) | 100 µM (≈ 60.7 µg/mL) | 100 µM (≈ 60.7 µg/mL) | 100 µM (≈ 60.7 µg/mL) | 9.89 U | 0.93 U | 377.61 U
7 | O=C(O)c1cn(C2CC2)c2cc(N3CCNCC3)c(F)cc2c1=O [CIPROFLOXACIN] | 3.12 µM (≈ 1.03 µg/mL) | 3.12 µM (≈ 1.03 µg/mL) | 3.12 µM (≈ 1.03 µg/mL) | 1.56 µM (≈ 0.517 µg/mL) | 1.56 µM (≈ 0.517 µg/mL) | 1.56 µM (≈ 0.517 µg/mL) | 1.56 µM (≈ 0.517 µg/mL) |  |  |  |  |  |  |  |  |  | 
8 | CC(=O)OC[C@H]1O[C@@H](NC(=S)N/N=C2/C(=O)N(Cc3ccccc3)c3ccccc32)[C@H](OC(C)=O)[C@@H](OC(C)=O)[C@@H]1OC(C)=O | 200 µM (≈ 128 µg/mL) | 200 µM (≈ 128 µg/mL) | 200 µM (≈ 128 µg/mL) | 100 µM (≈ 64.1 µg/mL) | 100 µM (≈ 64.1 µg/mL) | 100 µM (≈ 64.1 µg/mL) | 100 µM (≈ 64.1 µg/mL) | 200 µM (≈ 128 µg/mL) | 200 µM (≈ 128 µg/mL) | 200 µM (≈ 128 µg/mL) | 100 µM (≈ 64.1 µg/mL) | 400 µM (≈ 256 µg/mL) | 100 µM (≈ 64.1 µg/mL) | 400 µM (≈ 256 µg/mL) | 8.6 U | 1.69 U | 250.63 U
